Results taken from the supplement of paper PMC7017272.
± gives the standard deviation of the averaged measurements.

Legend:
Details in all cases: treatment time: 3 days
[1] = tested on: UT-SCC-24A; test: drug sensitivity score (DSS); higher = more sensitive
Method: (§1)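 HNSCC cell lines (500 cells/well, 384-well) were cultured on plastic, on top of (2D) or embedded (3D) in Matrigel or human leiomyoma matrix Myogel (500 ug/mL; Myogel 3D mixed with rat collagen I). Cells were treated for 3 days with 5 ten-fold concentrations of each drug, and viability was read by CellTiter-Glo. Suffixes _1/_2/_3 on drug names are replicates.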

[2] = tested on: UT-SCC-106A; test: maximal % inhibition of viability relative to DMSO; higher = stronger effect
Summary of the method: (§2)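 HPV-negative HNSCC cell lines were seeded at 500 cells/well in 384-well plates on plastic, on Matrigel- or Myogel-coated wells (500 µg/mL), or embedded in Matrigel or Myogel plus rat collagen I. Compounds were given at five 10-fold concentrations for 3 days, and viability was read by CellTiter-Glo 2.0 luminescence. Signals were normalised to vehicle (0.1% DMSO) and cell-killing control wells. Percent-inhibition dose–response curves were fitted in the FIMM pipeline to derive IC50, maximal inhibition and drug sensitivity score.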

[3] = tested on: UT-SCC-44; test: as above
Summary of the method: as §2

[4] = tested on: UT-SCC-73; test: as above
Summary of the method: as §2

[5] = tested on: UT-SCC-24A; test: maximal % inhibition of viability relative to DMSO; higher = stronger effect
Method: as §1, with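 “CellTiter-Glo. Viability was normalised to DMSO (0% inhibition) and 100 uM benzethonium chloride (100% inhibition) controls and fitted with the FIMM DSRT pipeline to give IC50 (nM), maximal % inhibition and the drug sensitivity score (DSS).” for “CellTiter-Glo.”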

[6] = tested on: UT-SCC-106A; test: drug sensitivity score (DSS); higher = more sensitive; extreme values may be limits of the assay
Summary of the method: as §2

[7] = tested on: UT-SCC-14; test: as above
Summary of the method: as §2

[8] = tested on: UT-SCC-24B; test: as above
Summary of the method: as §2

[9] = tested on: UT-SCC-28; test: as above
Summary of the method: as §2

[10] = tested on: UT-SCC-40; test: as above
Summary of the method: as §2

[11] = tested on: UT-SCC-42A; test: as above
Summary of the method: as §2

[12] = tested on: UT-SCC-42B; test: as above
Summary of the method: as §2

[13] = tested on: UT-SCC-44; test: as above
Summary of the method: as §2

[14] = tested on: UT-SCC-73; test: as above
Summary of the method: as §2

[15] = tested on: UT-SCC-81; test: as above
Summary of the method: as §2

[16] = tested on: UT-SCC-8; test: as above
Summary of the method: as §2

[17] = culture condition: embedded in Matrigel
[18] = culture condition: embedded in Myogel + collagen I
[19] = culture condition: on top of Matrigel
[20] = culture condition: on top of Myogel
[21] = culture condition: plastic 2D (no matrix)

With Cc1c(CN2CCN(C(=O)[C@H](C)O)CC2)sc2c(N3CCOCC3)nc(-c3cnc(N)nc3)nc12 [Apitolisib] the drug sensitivity score [1, 17] was 12.5 ± 2.4 DSS, the drug sensitivity score [1, 18] was 13.1 ± 1.9 DSS and the drug sensitivity score [1, 19] was 13 ± 0.85 DSS. For the same compound, the drug sensitivity score [1, 20] was 9.97 ± 0.15 DSS, the drug sensitivity score [1, 21] was 13.5 ± 1.6 DSS and the “maximal % inhibition of viability” value [2, 17] was 69.8 ± 1.9%. For the same compound, the “maximal % inhibition of viability” value [2, 18] was 60.4 ± 6.1%, the “maximal % inhibition of viability” value [2, 19] was 74.7 ± 0.85% and the “maximal % inhibition of viability” value [2, 20] was 66 ± 4%. For the same compound, the “maximal % inhibition of viability” value [2, 21] was 81.2 ± 5%, the “maximal % inhibition of viability” value [3, 17] was 57.8 ± 1.6% and the “maximal % inhibition of viability” value [3, 18] was 65.8 ± 3.9%. The “maximal % inhibition of viability” value [3, 19] was 58.2 ± 1.4%, the “maximal % inhibition of viability” value [3, 20] was 65.9 ± 2% and the “maximal % inhibition of viability” value [3, 21] was 63.5 ± 5%. The “maximal % inhibition of viability” value [4, 17] was 84.2 ± 2.6%, the “maximal % inhibition of viability” value [4, 18] was 76.2 ± 4.4% and the “maximal % inhibition of viability” value [4, 19] was 82.4 ± 0.53%. For the same compound, the “maximal % inhibition of viability” value [4, 20] was 79.5 ± 2.6%, the “maximal % inhibition of viability” value [4, 21] was 81.8 ± 2.3% and the “maximal % inhibition of viability” value [5, 17] was 90.3 ± 1.6%. For the same compound, the “maximal % inhibition of viability” value [5, 18] was 85.4 ± 2.3%, the “maximal % inhibition of viability” value [5, 19] was 87.7 ± 0.2% and the “maximal % inhibition of viability” value [5, 20] was 83.4 ± 1.9%. For the same compound, the “maximal % inhibition of viability” value [5, 21] was 88.57 ± 0.29%, the drug sensitivity score [6, 17] was 11.7 ± 0.66 DSS and the drug sensitivity score [6, 18] was 6.97 ± 1 DSS. It also gave a drug sensitivity score [6, 19] of 10.8 ± 0.35 DSS, a drug sensitivity score [6, 20] of 6.23 ± 0.6 DSS and a drug sensitivity score [6, 21] of 9.27 ± 1 DSS. The drug sensitivity score [7, 17] was 8.77 ± 1.1 DSS, the drug sensitivity score [7, 18] was 6.9 ± 1.9 DSS and the drug sensitivity score [7, 19] was 7.97 ± 1.6 DSS. For the same compound, the drug sensitivity score [7, 20] was 6.43 ± 1.1 DSS, the drug sensitivity score [7, 21] was 6.47 ± 1.7 DSS and the drug sensitivity score [8, 17] was 10.8 ± 1.8 DSS. It also gave a drug sensitivity score [8, 18] of 11.8 ± 1.1 DSS, a drug sensitivity score [8, 19] of 10.6 ± 0.76 DSS and a drug sensitivity score [8, 20] of 9.6 ± 0.2 DSS. For the same compound, the drug sensitivity score [8, 21] was 11.1 ± 1 DSS, the drug sensitivity score [9, 17] was 10.4 ± 1.3 DSS and the drug sensitivity score [9, 18] was 9 ± 2 DSS. For the same compound, the drug sensitivity score [9, 19] was 12.4 ± 1.5 DSS, the drug sensitivity score [9, 21] was 10.8 ± 0.51 DSS and the drug sensitivity score [10, 17] was 9.4 ± 0.27 DSS. It also gave a drug sensitivity score [10, 18] of 7.23 ± 0.25 DSS, a drug sensitivity score [10, 19] of 8.07 ± 0.49 DSS and a drug sensitivity score [10, 20] of 5.3 ± 1.7 DSS. The drug sensitivity score [10, 21] was 6.33 ± 1.2 DSS, the drug sensitivity score [11, 17] was 7.43 ± 0.45 DSS and the drug sensitivity score [11, 18] was 8.1 ± 1.3 DSS. The drug sensitivity score [11, 19] was 8.03 ± 1.3 DSS, the drug sensitivity score [11, 20] was 7.07 ± 0.4 DSS and the drug sensitivity score [11, 21] was 8.8 ± 1.1 DSS. The drug sensitivity score [12, 17] was 7.13 ± 2.4 DSS, the drug sensitivity score [12, 19] was 5.47 ± 0.81 DSS and the drug sensitivity score [12, 20] was 4.4 ± 1 DSS. The drug sensitivity score [12, 21] was 4.43 ± 0.93 DSS, the drug sensitivity score [13, 17] was 9.77 ± 0.86 DSS and the drug sensitivity score [13, 18] was 6.17 ± 1.4 DSS. The drug sensitivity score [13, 19] was 8.4 ± 0.1 DSS, the drug sensitivity score [13, 20] was 8.03 ± 2.9 DSS and the drug sensitivity score [13, 21] was 6.67 ± 0.55 DSS. It also gave a drug sensitivity score [14, 17] of 9 ± 1.2 DSS, a drug sensitivity score [14, 18] of 8.2 ± 1.4 DSS and a drug sensitivity score [14, 19] of 7.8 ± 0.36 DSS. The drug sensitivity score [14, 20] was 7.37 ± 0.15 DSS, the drug sensitivity score [14, 21] was 7.23 ± 1.2 DSS and the drug sensitivity score [15, 17] was 14.9 ± 3 DSS. The drug sensitivity score [15, 18] was 10.4 ± 0.81 DSS, the drug sensitivity score [15, 19] was 8.87 ± 0.71 DSS and the drug sensitivity score [15, 20] was 8.53 ± 1.1 DSS. It also gave a drug sensitivity score [15, 21] of 8.8 ± 1.8 DSS, a drug sensitivity score [16, 17] of 9.63 ± 0.38 DSS and a drug sensitivity score [16, 18] of 6.2 ± 2.1 DSS. For the same compound, the drug sensitivity score [16, 19] was 9.23 ± 0.51 DSS, the drug sensitivity score [16, 20] was 9.13 ± 1 DSS and the drug sensitivity score [16, 21] was 9.17 ± 0.32 DSS.
